According to publication PMC10993450, “New benzimidazole derivative compounds with in vitro fasciolicidal properties” (Parasites & Vectors, 2024):

What was measured:
[1] = tested on: Fasciola hepatica eggs (ABZ-susceptible isolate); experiment: Egg hatch test (EHT), ABZ-susceptible isolates; format: cell-based; settings: mean ± SEM; for % Ovicidal activity: ABZ-susceptible isolate
Protocol: Eggs were recovered from gallbladders of cattle naturally infected with F. hepatica at the municipal slaughterhouse of León (Spain). For this, the bile of the gallbladders was filtered through sieves of different diameter size pores (500, 150, and 20 µm) using pressurized tap water. Eggs retained on the 20 µm pore size sieve were collected and stored at 4 °C in darkness until required within a maximum period of 2 months.
The susceptibility of the isolates to ABZ was confirmed by the egg hatch test (EHT) using an ABZ discriminant dose (DD) of 0.5 µM [23]. The technique is described in more detail below.
The in vitro anthelmintic activity of a total of 70 BZDs was initially tested on F. hepatica eggs recovered from gallbladders of cattle naturally infected with ABZ-susceptible isolates. The first screening was performed using a fixed concentration of 50 µM. […] Therefore, only BZDs with ovicidal activities over 80% progressed to the next assays at 10 µM. […] At this last concentration, the ovicidal effect of ABZ, ABZSO, and OXF was also evaluated.
The in vitro EHT described in the current study was based on previous studies. Briefly, 100–120 eggs were incubated in 990 µL of water and 10 μL of each working solution at 25 °C in the dark for a period of 12 h. After incubation, eggs were gently washed with tap water three times to facilitate compound removal and kept in darkness at 25 °C for 14 days. After this period, eggs were exposed to light for 2 h to stimulate the hatching of eggs. Then, hatched and unhatched eggs were evaluated and counted using an optical microscope. The term “hatched eggs” includes both hatched and embryonated eggs. Negative control eggs were incubated with 10 μL of DMSO in 990 μL of water, reaching a maximum DMSO concentration of 1% (v/v), while ABZ at 0.5 µM was used as positive control. Each compound at a specific concentration was tested in triplicate in the same EHT and repeated at least two different days.
With the aim to characterize the susceptibility of isolates from naturally infected cattle, the drug used in the EHT was ABZ, tested at a discriminant dose of 0.5 μM. Drug susceptibility is assumed when the ovicidal activity is over 70%, resistance when is lower than 40%, and a suspicion of resistance when activity is between these values at 0.5 μM.
The efficacy of each compound and drug was calculated as its ovicidal activity following the formula below: Ovicidal activity%=100×%eggs hatched in negative control-%egg hatched after drug incubation/%egg hatched in control.

[2] = tested on: murine intestinal organoids; experiment: Intestinal tolerability assay on murine intestinal organoids; format: cell-based, mouse
Protocol: (§1) The murine intestinal organoid cultures were prepared following Stemcell Technologies™ protocols (https://www.stemcell.com/intestinal-epithelial-organoid-culture-with-intesticult-organoid-growth-medium-mouse-lp.html#protocols). Small intestine sections from C57BL/6 mice were excised, washed with ice-cold PBS, minced, and 2 mm segments were washed extensively. The segments were treated with Gentle Cell Dissociation Reagent (Stemcell Technologies™, Canada), resuspended in ice-cold PBS with 0.1% BSA and filtered. This process was repeated four times, resulting in four fractions. Cells from each fraction were centrifuged, washed, and resuspended in ice-cold DMEM/F12 supplemented with glutamine and HEPES 15 mM. Each fraction was mixed with Geltrex GFR LDEV-free (Gibco, Thermo Fisher Scientific, USA) and IntestiCult™ Organoid Grow Medium Mouse (Stemcell Technologies™, Canada), added to a 24-well plate and incubated at 37 °C for 10 min for matrix polymerization. The organoids were cultured in IntestiCult™ Organoid Grow Medium Mouse, with medium changes every 2 days and splitting after 7 days.
(§2) For intestinal tolerability assays, selected hit compounds were tested in mouse intestinal organoids at 25 and 50 µM final concentrations. The protocol, based on a previous work, involved the addition of Gentle Cell Dissociation Reagent (Stemcell Technologies™, Canada) on matrix domes, the disruption of the matrix, and the incubation the suspension. After centrifugation, cells were resuspended in DMEM/F12 supplemented with glutamine and HEPES 15 mM and centrifugated again. The pellet was resuspended in a mix of Geltrex GFR LDEV-free and IntestiCult™ Organoid Grow Medium Mouse. The mix was plated in 384-well plates, and after 4 days, mature organoids were exposed to the compounds. The positive control was hydrogen peroxide (0.15% v/v), and the negative control was DMSO (0.2%). Viability after 72 h was assessed using the alamarBlue assay.

[3] = tested on: HepG2 cells; experiment: Cytotoxicity assay, alamarBlue; format: cell-based, human
Protocol: (§3) The effect of the BZDs on cell viability was assessed on a human hepatocarcinoma HepG2 (ATCC® HB-8065™, USA) cell line. Only compounds screened at a concentration of 10 µM were evaluated. The detailed protocol is described in a previous study carried out by our research group. Briefly, 10,000 cells were seeded on 96-well plates and incubated with different concentrations of the compounds ranging from 1 to 100 µM at 37 °C and 5% CO2. After 72 h of exposure, viability of the cells was assessed using the alamarBlue (Fisher Scientific®, Spain) staining method according to the manufacturer’s recommendations.
(§4) The data are represented as mean ± standard error of media (SEM).

[4] = tested on: Teladorsagia circumcincta eggs; settings: type II BZDs; read-out: IC50 against T. circumcincta eggs; cited from earlier work
[5] = tested on: Haemonchus contortus; settings: sheep infected with Haemonchus contortus, 120 mg/kg; cited from earlier work
[6] = tested on: Fasciola hepatica eggs; design: method as in PMID 19560276; settings: other studies; cited from earlier work
[7] = Cytotoxicity assay, alamarBlue; format: cell-based, human; settings: human, HepG2 cells; 72 h exposure, alamarBlue; read-out: CC50 Hep-G2
Protocol: as §3, §4

[8] = Intestinal tolerability assay on murine intestinal organoids; format: cell-based, mouse; settings: C57BL/6, mouse, murine small-intestinal organoids, 72 h
Protocol: as §1, §2

Row | SMILES | % Ovicidal activity ([1]; 10 µM) | % Ovicidal activity ([1]; 50 µM) | % Viability in organoids ([2]; 25 µM) [%] | CC50 [3] [µM] | also measured
1 | Clc1ccc2[nH]c(NCc3ccccc3)nc2c1 [BZD32] | 09.11 ± 03.40% | 92.62 ± 1.96% | 48.10 |  | % Ovicidal activity ([1]; 50 µM, listed as BZD-32): higher than 80%; % Viability in organoids ([2]; 50 µM): 52.10%
2 | COc1ccc2[nH]c(NCc3ccc(N4CCCC4)cc3)nc2c1 [BZD38] | 03.23 ± 00.84% | higher than 80% | 81.10 | > 100 | % Viability in organoids ([2]; 50 µM): 38.00%
3 | Cc1ccc2[nH]c(NC(=O)c3ccccn3)nc2c1 [BZD55] | 07.11 ± 03.01% | 89.71 ± 3.87% | 98.60 | > 100 | % Ovicidal activity ([1]; 50 µM, listed as BZD-55): higher than 80%; IC50 [4]: ~1 µM
4 | O=C(Nc1nc2cc(Cl)ccc2[nH]1)c1ccccn1 [BZD58] | around 50% | higher than 80% | 100 | > 5 | in vivo efficacy [5]: 95%
5 | COc1ccc2[nH]c(NC(=O)c3ccccn3)nc2c1 [BZD61] |  | 93.17 ± 3.31% |  |  | % Ovicidal activity ([1]; 50 µM, listed as BZD-61): higher than 80%; IC50 [4]: < 1 µM
6 | Nc1cc(C(Cl)=C(Cl)Cl)c(S(N)(=O)=O)cc1S(N)(=O)=O [CLR, clorsulon] |  |  |  |  | Effect on in vitro egg hatching [6]: did not affect in vitro egg hatching
7 | CSc1nc2cc(Cl)c(Oc3cccc(Cl)c3Cl)cc2[nH]1 [TCBZ, triclabendazole, reference compound] |  |  |  |  | CC50 at 72 h [7]: > 50 µM; killing at 5 µM ([1]; Fasciola hepatica, 5 µM, read-out: % Ovicidal activity susceptible isolate): ≤ 2%; Effect on in vitro egg hatching [6]: did not affect in vitro egg hatching; viability at 72 h, 25 µM ([8]; 25 µM): ~82%; viability at 72 h, 50 µM ([8]; 50 µM): ~1.5%
